Drawing on patent US20040156869A1, “2-substituted quinazolin-4-ylamine analogues” (Neurogen Corporation, priority 2002, published 2004), this text covers Ki for 29 compounds.

What is called Ki is the dissociation constant of the complex between target and ligand, obtained from inhibition or displacement.

In this assay the target is human capsaicin receptor (VR1) (Homo sapiens, UniProt Q8NER1). Kind of assay: Capsaicin receptor binding assay ([3H]RTX competition, VR1-transfected HEK293 membranes).
Sequence of human capsaicin receptor (VR1) (Q8NER1 whole entry): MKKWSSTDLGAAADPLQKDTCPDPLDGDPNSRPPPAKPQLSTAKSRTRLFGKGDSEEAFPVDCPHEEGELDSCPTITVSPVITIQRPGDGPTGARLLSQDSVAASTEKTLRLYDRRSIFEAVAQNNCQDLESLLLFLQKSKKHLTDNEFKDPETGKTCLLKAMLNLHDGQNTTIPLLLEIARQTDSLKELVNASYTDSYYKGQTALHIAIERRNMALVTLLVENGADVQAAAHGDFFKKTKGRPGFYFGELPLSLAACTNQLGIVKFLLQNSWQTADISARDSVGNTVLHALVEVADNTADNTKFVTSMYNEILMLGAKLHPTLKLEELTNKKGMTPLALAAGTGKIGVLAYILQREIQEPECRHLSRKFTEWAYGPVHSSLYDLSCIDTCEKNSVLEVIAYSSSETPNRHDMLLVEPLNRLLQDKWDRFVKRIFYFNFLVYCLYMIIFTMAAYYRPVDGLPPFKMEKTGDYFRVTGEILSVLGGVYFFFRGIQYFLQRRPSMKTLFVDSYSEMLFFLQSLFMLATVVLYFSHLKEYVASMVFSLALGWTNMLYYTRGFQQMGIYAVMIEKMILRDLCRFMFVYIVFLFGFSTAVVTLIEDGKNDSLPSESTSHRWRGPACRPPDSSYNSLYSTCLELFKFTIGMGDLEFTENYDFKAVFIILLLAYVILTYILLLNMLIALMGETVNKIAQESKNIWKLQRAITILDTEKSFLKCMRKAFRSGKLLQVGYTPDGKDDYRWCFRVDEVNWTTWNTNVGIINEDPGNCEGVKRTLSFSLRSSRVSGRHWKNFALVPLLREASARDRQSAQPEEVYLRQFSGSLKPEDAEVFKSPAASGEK
The compound `OCCC1CCN(Cc2nc(Nc3ccc(C(F)(F)F)cc3)c3ccc(-c4ncccc4C(F)(F)F)cc3n2)CC1` [Compound 494, 2-{1-[4-(4-Trifluoromethyl-phenylamino)-7-(3-trifluoromethyl-pyridin-2-yl)-quinazolin-2-ylmethyl]-piperidin-4-yl}-ethanol] displayed a Ki below 1 µM. In the case of `OCC1CCN(Cc2nc(Nc3ccc(C(F)(F)F)cc3)c3ccc(-c4ncccc4C(F)(F)F)cc3n2)CC1` [Compound 495, {1-[4-(4-Trifluoromethyl-phenylamino)-7-(3-trifluoromethyl-pyridin-2-yl)-quinazolin-2-ylmethyl]-piperidin-4-yl}-methanol], the inhibition constant (Ki) is below 1 µM. With `OC1CCN(Cc2nc(Nc3ccc(C(F)(F)F)cc3)c3ccc(-c4ncccc4C(F)(F)F)cc3n2)CC1` [Compound 496, 1-[4-(4-Trifluoromethyl-phenylamino)-7-(3-trifluoromethyl-pyridin-2-yl)-quinazolin-2-ylmethyl]-piperidin-4-ol] the figure was below 1 µM; with `OCC1CCCCN1Cc1nc(Nc2ccc(C(F)(F)F)cc2)c2ccc(-c3ncccc3C(F)(F)F)cc2n1` (centres unmarked) [Compound 497, {1-[4-(4-Trifluoromethyl-phenylamino)-7-(3-trifluoromethyl-pyridin-2-yl)-quinazolin-2-ylmethyl]piperidin-2-yl}-methanol], below 1 µM; with `CC1CCCN(Cc2nc(Nc3ccc(C(F)(F)F)cc3)c3ccc(-c4ncccc4C(F)(F)F)cc3n2)C1` (centres unmarked) [Compound 498, [2-(3-Methyl-piperidin-1-ylmethyl)-7-(3-yl)-quinazolin-4-yl]-(4-trifluoromethyl-phenyl)-amine], below 1 µM.

In turn, `OC1CCCN(Cc2nc(Nc3ccc(C(F)(F)F)cc3)c3ccc(-c4ncccc4C(F)(F)F)cc3n2)C1` (centres unmarked) [Compound 499, 1-[4-(4-Trifluoromethyl-phenylamino)-7-(3-trifluoromethyl-pyridin-2-yl)-quinazolin-2-ylmethyl]-piperidin-3-ol] came in with a Ki below 1 µM. Next, `NC(=O)C1CCN(Cc2nc(Nc3ccc(C(F)(F)F)cc3)c3ccc(-c4ncccc4C(F)(F)F)cc3n2)CC1` [Compound 500, 1-[4-(4-Trifluoromethyl-phenylamino)-7-(3-trifluoromethyl-pyridin-2-yl)-quinazolin-2-ylmethyl]-piperidine-4-carboxylic acid amide]: below 1 µM. With `CCOC(=O)C1CCCN(Cc2nc(Nc3ccc(C(F)(F)F)cc3)c3ccc(-c4ncccc4C(F)(F)F)cc3n2)C1` (centres unmarked) [Compound 501, 1-[4-(4-Trifluoromethyl-phenylamino)-7-(3-trifluoromethyl-pyridin-2-yl)-quinazolin-2-ylmethyl]-piperidine-3-carboxylic acid ethyl ester] the figure was below 1 µM.

In turn, `OCC1CCCN(Cc2nc(Nc3ccc(C(F)(F)F)cc3)c3ccc(-c4ncccc4C(F)(F)F)cc3n2)C1` (centres unmarked) [Compound 502, {1-[4-(4-Trifluoromethyl-phenylamino)-7-(3-trifluoromethyl-pyridin-2-yl)-quinazolin-2-ylmethyl]-piperidin-3-yl}-methanol] yielded a Ki below 1 µM. Take `CCOC(=O)C1CCN(Cc2nc(Nc3ccc(C(F)(F)F)cc3)c3ccc(-c4ncccc4C(F)(F)F)cc3n2)CC1` [Compound 503, 1-[4-(4-Trifluoromethyl-phenylamino)-7-(3-trifluoromethyl-pyridin-2-yl)-quinazolin-2-ylmethyl]-piper idine-4-carboxylic acid ethyl ester]: the Ki is below 1 µM.

Compound `OCCN1CCN(Cc2nc(Nc3ccc(C(F)(F)F)cc3)c3ccc(-c4ncccc4C(F)(F)F)cc3n2)CC1` [Compound 504, 2-{4-[4-(4-Trifluoromethyl-phenylamino)-7-(3-trifluoromethyl-pyridin-2-yl)-quinazolin-2-ylmethyl]-piperazin-1-yl}-ethanol] yielded a Ki below 1 µM. `CS(=O)(=O)NCc1nc(Nc2ccc(C(F)(F)F)cc2)c2ccc(-c3ncccc3C(F)(F)F)cc2n1` [Compound 506, N-[4-(4-Trifluoromethyl-phenylamino)-7-(3-trifluoromethyl-pyridin-2-yl)-quinazolin-2-ylmethyl]-methanesulfonamide] displayed a Ki below 1 µM.

For the compound `FC(F)(F)c1ccc(Nc2nc(-c3ccncc3)nc3cc(-c4ncccc4C(F)(F)F)ccc23)cc1` [Compound 507, [2-Pyridin-4-yl-7-(3-trifluoromethyl-pyridin-2-yl)-quinazolin-4-yl]-(4-trifluoromethyl-phenyl)-amine], the inhibition constant Ki is below 1 µM.

On to `FC(F)(F)c1ccc(Nc2nc(-c3cccnc3)nc3cc(-c4ncccc4C(F)(F)F)ccc23)cc1` [Compound 508, [2-Pyridin-3-yl-7-(3-trifluoromethyl-pyridin-2-yl)-quinazolin-4-yl]-(4-trifluoromethyl-phenyl)-amine], for which the Ki was below 1 µM. Consider `COc1ccc(-c2nc(Nc3ccc(C(F)(F)F)cc3)c3ccc(-c4ncccc4C(F)(F)F)cc3n2)cn1` [Compound 509, [2-(6-Methoxy-pyridin-3-yl)-7-(3-trifluoromethyl-pyridin-2-yl)-quinazolin-4-yl]-(4-trifluoromethyl-phenyl)-amine], for which the inhibition constant (Ki) was below 1 µM.

`FC(F)(F)c1ccc(Nc2nc(C3N=NN=N3)nc3cc(-c4ncccc4C(F)(F)F)ccc23)cc1` [Compound 510, [2-(5H-Tetrazol-5-yl)-7-(3-trifluoromethyl-pyridin-2-yl)-quinazolin-4-yl]-(4-trifluoromethyl-phenyl)-amine] showed an inhibition constant (Ki) below 1 µM. With `CC(C)N1CCN(Cc2nc(Nc3ccc(C(F)(F)F)cc3)c3ccc(-c4ncccc4C(F)(F)F)cc3n2)CC1` [Compound 512, [2-(4-Isopropyl-piperazin-1-ylmethyl)-7-(3-trifluoromethyl-pyridin-2-yl)-quinazolin-4-yl]-(4-trifluoromethyl-phenyl)-amine] the figure was below 1 µM; with `COCCN1CCN(Cc2nc(Nc3ccc(C(F)(F)F)cc3)c3ccc(-c4ncccc4C(F)(F)F)cc3n2)CC1` [Compound 514, [2-[4-(2-Methoxy-ethyl)-piperazin-1-ylmethyl]-7-(3-trifluoromethyl-pyridin-2-yl)-quinazolin-4-yl]-(4-trifluoromethyl-phenyl)-amine], below 1 µM. Next, `CN(C)CCN1CCN(Cc2nc(Nc3ccc(C(F)(F)F)cc3)c3ccc(-c4ncccc4C(F)(F)F)cc3n2)CC1` [Compound 515, [2-[4-(2-Dimethylamino-ethyl)-piperazin-1-ylmethyl]-7-(3-trifluoromethyl-pyridin-2-yl)-quinazolin-4-yl]-(4-trifluoromethyl-phenyl)-amine]: below 1 µM; `FC(F)(F)c1ccc(Nc2nc(CN3CCN(CCN4CCCC4)CC3)nc3cc(-c4ncccc4C(F)(F)F)ccc23)cc1` [Compound 517, [2-[4-(Pyrrolidin-1-yl-ethyl)-piperazin-1-ylmethyl]-7-(3-trifluoromethyl-pyridin-2-yl)-quinazolin-4-yl]-(4-trifluoromethyl-phenyl)-amine]: below 1 µM. Next, `FC(F)(F)c1ccc(Nc2nc(CN3CCN(CCN4CCOCC4)CC3)nc3cc(-c4ncccc4C(F)(F)F)ccc23)cc1` [Compound 518, [2-[4-(2-Morpholin-4-yl-ethyl)-piperazin-1-ylmethyl]-7-(3-trifluoromethyl-pyridin-2-yl)-quinazolin-4-yl]-(4-trifluoromethyl-phenyl)-amine]: below 1 µM.

For the compound `CN(C)CCCN1CCN(Cc2nc(Nc3ccc(C(F)(F)F)cc3)c3ccc(-c4ncccc4C(F)(F)F)cc3n2)CC1` [Compound 519, [2-[4-(3-Dimethylamino-propyl)-piperazin-1-ylmethyl]-7-(3-trifluoromethyl-pyridin-2-yl)-quinazolin-4-yl]-(4-trifluoromethyl-phenyl)-amine], the Ki is below 1 µM. As for `COCCN(CCOC)Cc1nc(Nc2ccc(C(F)(F)F)cn2)c2ccc(-c3ncccc3C(F)(F)F)cc2n1` [Compound 521, [2-{[Bis-(2-methoxy-ethyl)-aminol]-methyl}-7-(3-trifluoromethyl-pyridin-2-yl)-quinazolin-4-yl]-(5-trifluoromethyl-pyridin-2-yl)-amine], the Ki was below 1 µM. Next, `CN1CCN(Cc2nc(Nc3ccc(C(F)(F)F)cn3)c3ccc(-c4ncccc4C(F)(F)F)cc3n2)CC1` [Compound 522, [2-(4-Methyl-piperazin-1-ylmethyl)-7-(3-trifluoromethyl-pyridin-2-yl)-quinazolin-4-yl]-(5-trifluoromethyl-pyridin-2-yl)-amine]: below 1 µM.

The compound `CC(c1ccc(Nc2nc(CN3CCCCC3)nc3cc(-c4ncccc4C(F)(F)F)ccc23)cc1)C(F)(F)F` (centres unmarked) [Compound 523, [2-Piperidin-1-ylmethyl-7-(3-trifluoromethyl-pyridin-2-yl)-quinazolin-4-yI]-[4-(2,2,2-trifluoro-1-methyl-ethyl)-phenyl]-amine] had a Ki below 1 µM. Next, `CC(c1ccc(Nc2nc(CN3CCOCC3)nc3cc(-c4ncccc4C(F)(F)F)ccc23)cc1)C(F)(F)F` (centres unmarked) [Compound 524, [2-Morpholin-4-ylmethyl-7-(3-trifluoromethyl-pyridin-2-yl)-quinazolin-4-yl]-[4-(2,2,2-trifluoro-1-methyl-ethyl)-phenyl]-amine]: below 1 µM; `CC1CN(Cc2nc(Nc3ccc(C(C)C(F)(F)F)cc3)c3ccc(-c4ncccc4C(F)(F)F)cc3n2)CC(C)O1` (centres unmarked) [Compound 525, [2-(2,6-Dimethyl-morpholin-4-ylmethyl)-7-(3-trifluoromethyl-pyridin-2-yl)-quinazolin-4-yl]-[4-(2,2,2-trifluoro-1-methyl-ethyl)-phenyl]-amine]: below 1 µM.

For `CC(c1ccc(Nc2nc(CN3CCN(C)CC3)nc3cc(-c4ncccc4C(F)(F)F)ccc23)cc1)C(F)(F)F` (centres unmarked) [Compound 526, [2-(4-Methyl-piperazin-1-ylmethyl)-7-(3-trifluoromethyl-pyridin-2-yl)-quinazolin-4-yl]-[4-(2,2,2-trifluoro-1-methyl-ethyl)-phenyl]-amine], the Ki was below 1 µM. Turning to `COCCN(CCOC)Cc1nc(Nc2ccc(C(C)C(F)(F)F)cc2)c2ccc(-c3ncccc3C(F)(F)F)cc2n1` (centres unmarked) [Compound 527, [2-{[Bis-(2-methoxy-ethyl)-amino]-methyl}-7-(3-trifluoromethyl-pyridin-2-yl)-quinazolin-4-yl]-[4-(2,2,2-trifluoro-1-methyl-ethyl)-phenyl]-amine], the inhibition constant (Ki) is below 1 µM.
